Experimental data as given in PubChem BioAssay AID248 (DTP/NCI, 2004).
Toxic doses and inconclusive results are not listed.

Test system: L1210 leukemia ip in BDF1 mice, survival T/C
Assay: NCI In Vivo Anticancer Drug Screen. Data for tumor model L1210 Leukemia (intraperitoneal) in B6D2F1 (BDF1) mice
Details: higher = longer survival
Outline: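 Value reflects the ratio of survival in compound-treated mice to survival in vehicle-treated controls, with both groups carrying the same transplanted tumor.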

[1] = endpoint: mean survival time, dose: 100.0 mg/kg/injection, schedule: Q01DX001 (ip), vehicle: Klucel (hydroxypropylcellulose) (HPC)
[2] = endpoint: mean survival time, dose: 200.0 mg/kg/injection, schedule: Q01DX001 (ip), vehicle: Klucel (hydroxypropylcellulose) (HPC)
[3] = endpoint: mean survival time, dose: 400.0 mg/kg/injection, schedule: Q01DX001 (ip), vehicle: Klucel (hydroxypropylcellulose) (HPC)
[4] = endpoint: mean survival time, dose: 100.0 mg/kg/injection, schedule: Q01DX001 (ip), vehicle: carboxymethylcellulose (CMC)
[5] = endpoint: mean survival time, dose: 200.0 mg/kg/injection, schedule: Q01DX001 (ip), vehicle: carboxymethylcellulose (CMC)
[6] = endpoint: mean survival time, dose: 400.0 mg/kg/injection, schedule: Q01DX001 (ip), vehicle: carboxymethylcellulose (CMC)
[7] = endpoint: mean survival time, dose: 100.0 mg/kg/injection, schedule: Q01DX009 (ip), vehicle: saline with Tween-80
[8] = endpoint: mean survival time, dose: 100.0 mg/kg/injection, schedule: Q04DX002 (ip), vehicle: saline with Tween-80
[9] = endpoint: mean survival time, dose: 200.0 mg/kg/injection, schedule: Q04DX002 (ip), vehicle: saline with Tween-80
[10] = endpoint: mean survival time, dose: 400.0 mg/kg/injection, schedule: Q04DX002 (ip), vehicle: saline with Tween-80
[11] = endpoint: mean survival time, dose: 100.0 mg/kg/injection, schedule: Q04DX002 (ip), vehicle: Klucel (hydroxypropylcellulose) (HPC)
[12] = endpoint: mean survival time, dose: 200.0 mg/kg/injection, schedule: Q04DX002 (ip), vehicle: Klucel (hydroxypropylcellulose) (HPC)
[13] = endpoint: mean survival time, dose: 400.0 mg/kg/injection, schedule: Q04DX002 (ip), vehicle: Klucel (hydroxypropylcellulose) (HPC)
[14] = endpoint: mean survival time, dose: 200.0 mg/kg/injection, schedule: Q01DX009 (ip), vehicle: saline with Tween-80
[15] = endpoint: mean survival time, dose: 400.0 mg/kg/injection, schedule: Q01DX009 (ip), vehicle: saline with Tween-80

CSc1nc(Cl)nc(C(Cl)(Cl)Cl)c1Cl
T/C [1]: 89 % of control | T/C [2]: 103 % of control | T/C [3]: 89 % of control

Nc1cc2c(cc1Br)-c1ccccc1/C2=N\O
T/C [4]: 102 % of control | T/C [5]: 102 % of control | T/C [6]: 100 % of control

O=C1O/C(=C\c2ccccc2)c2c(Br)c(Br)c(Br)c(Br)c21
T/C [4]: 94 % of control | T/C [5]: 91 % of control | T/C [6]: 96 % of control

Cc1ccc(S(=O)(=O)O)cn1
T/C (endpoint: mean survival time, dose: 100.0 mg/kg/injection, schedule: Q01DX001 (ip), vehicle: saline): 94 % of control | T/C (endpoint: mean survival time, dose: 200.0 mg/kg/injection, schedule: Q01DX001 (ip), vehicle: saline): 97 % of control | T/C (endpoint: mean survival time, dose: 400.0 mg/kg/injection, schedule: Q01DX001 (ip), vehicle: saline): 92 % of control

c1cc[n+]2c(c1)-c1cccc[n+]1CCC2
T/C [4]: 94 % of control | T/C [5]: 101 % of control | T/C [6]: 92 % of control

COC1C(O)C(C)OC(OC2C(Oc3cccc4c(O)c5c(=O)oc6ccc(C)c7c(=O)oc(c34)c5c67)OC(C)C(O)C2O)C1O (stereo unspecified)
T/C (endpoint: mean survival time, dose: 1.25 mg/kg/injection, schedule: Q01DX009 (ip), vehicle: saline with Tween-80): 97 % of control | T/C (endpoint: mean survival time, dose: 2.5 mg/kg/injection, schedule: Q01DX009 (ip), vehicle: saline with Tween-80): 123 % of control | T/C (endpoint: mean survival time, dose: 5.0 mg/kg/injection, schedule: Q01DX009 (ip), vehicle: saline with Tween-80): 115 % of control | T/C (endpoint: mean survival time, dose: 12.5 mg/kg/injection, schedule: Q01DX009 (ip), vehicle: carboxymethylcellulose (CMC)): 108 % of control | T/C (endpoint: mean survival time, dose: 20.0 mg/kg/injection, schedule: Q01DX009 (ip), vehicle: saline with Tween-80): 166 % of control | T/C (endpoint: mean survival time, dose: 25.0 mg/kg/injection, schedule: Q01DX009 (ip), vehicle: carboxymethylcellulose (CMC)): 108 % of control | T/C (endpoint: mean survival time, dose: 50.0 mg/kg/injection, schedule: Q01DX009 (ip), vehicle: carboxymethylcellulose (CMC)): 117 % of control | T/C [7]: 121 % of control | T/C (endpoint: median survival time, dose: 8.0 mg/kg/injection, schedule: Q04DX003 (ip), vehicle: saline with Tween-80): 106 % of control | T/C (endpoint: median survival time, dose: 16.0 mg/kg/injection, schedule: Q04DX003 (ip), vehicle: saline with Tween-80): 110 % of control | T/C (endpoint: median survival time, dose: 32.0 mg/kg/injection, schedule: Q04DX003 (ip), vehicle: saline with Tween-80): 114 % of control | T/C (endpoint: median survival time, dose: 64.0 mg/kg/injection, schedule: Q04DX003 (ip), vehicle: saline with Tween-80): 114 % of control | T/C (endpoint: median survival time, dose: 128.0 mg/kg/injection, schedule: Q04DX003 (ip), vehicle: saline with Tween-80): 110 % of control

COCCNc1ccc(NCCOC)c2c1C(=O)c1ccccc1C2=O
T/C (endpoint: mean survival time, dose: 87.5 mg/kg/injection, schedule: Q04DX003 (ip), vehicle: Klucel (hydroxypropylcellulose) (HPC)): 91 % of control | T/C (endpoint: mean survival time, dose: 175.0 mg/kg/injection, schedule: Q04DX003 (ip), vehicle: Klucel (hydroxypropylcellulose) (HPC)): 91 % of control | T/C (endpoint: mean survival time, dose: 350.0 mg/kg/injection, schedule: Q04DX003 (ip), vehicle: Klucel (hydroxypropylcellulose) (HPC)): 88 % of control

CCCCCCCCCCCCC(C(=O)O)C1C=CCC1 (stereo unspecified)
T/C (endpoint: mean survival time, dose: 100.0 mg/kg/injection, schedule: Q01DX001 (ip), vehicle: other): 95 % of control | T/C (endpoint: mean survival time, dose: 200.0 mg/kg/injection, schedule: Q01DX001 (ip), vehicle: other): 90 % of control | T/C (endpoint: mean survival time, dose: 400.0 mg/kg/injection, schedule: Q01DX001 (ip), vehicle: other): 101 % of control

Cc1cc(C)c(-c2c(C)cc(C)cc2[N+](=O)[O-])c([N+](=O)[O-])c1
T/C (endpoint: mean survival time, dose: 100.0 mg/kg/injection, schedule: Q04DX003 (ip), vehicle: saline): 93 % of control | T/C (endpoint: mean survival time, dose: 200.0 mg/kg/injection, schedule: Q04DX003 (ip), vehicle: saline): 96 % of control | T/C (endpoint: mean survival time, dose: 400.0 mg/kg/injection, schedule: Q04DX003 (ip), vehicle: saline): 86 % of control

CCCCCCC1CCC(N)CC1 (stereo unspecified)
T/C (endpoint: mean survival time, dose: 6.25 mg/kg/injection, schedule: Q04DX002 (ip), vehicle: saline with Tween-80): 95 % of control | T/C (endpoint: mean survival time, dose: 12.5 mg/kg/injection, schedule: Q04DX002 (ip), vehicle: saline with Tween-80): 95 % of control | T/C (endpoint: mean survival time, dose: 25.0 mg/kg/injection, schedule: Q04DX002 (ip), vehicle: saline with Tween-80): 113 % of control

CCCCCCCC[Se]CCCCCCCC
T/C (endpoint: mean survival time, dose: 100.0 mg/kg/injection, schedule: Q04DX003 (ip), vehicle: saline with Tween-80): 111 % of control | T/C (endpoint: mean survival time, dose: 200.0 mg/kg/injection, schedule: Q04DX003 (ip), vehicle: saline with Tween-80): 103 % of control | T/C (endpoint: mean survival time, dose: 400.0 mg/kg/injection, schedule: Q04DX003 (ip), vehicle: saline with Tween-80): 103 % of control

CNCCN1CCC(Cc2ccccc2)CC1
T/C (endpoint: mean survival time, dose: 50.0 mg/kg/injection, schedule: Q01DX009 (ip), vehicle: saline): 112 % of control | T/C (endpoint: mean survival time, dose: 100.0 mg/kg/injection, schedule: Q01DX009 (ip), vehicle: saline): 102 % of control | T/C (endpoint: mean survival time, dose: 200.0 mg/kg/injection, schedule: Q01DX009 (ip), vehicle: saline): 121 % of control

N#Cc1ccccc1N=NNc1ccc([N+](=O)[O-])cc1
T/C (endpoint: mean survival time, dose: 75.0 mg/kg/injection, schedule: Q01DX001 (ip), vehicle: saline): 108 % of control | T/C (endpoint: mean survival time, dose: 150.0 mg/kg/injection, schedule: Q01DX001 (ip), vehicle: saline): 104 % of control | T/C (endpoint: mean survival time, dose: 300.0 mg/kg/injection, schedule: Q01DX001 (ip), vehicle: saline): 98 % of control

CSc1nc(N)nc2ncc(CN(C)c3ccc(C(=O)O)cc3)nc12
T/C (endpoint: mean survival time, dose: 8.0 mg/kg/injection, schedule: Q01DX009 (ip), vehicle: DMSO): 100 % of control | T/C (endpoint: mean survival time, dose: 12.0 mg/kg/injection, schedule: Q01DX009 (ip), vehicle: DMSO): 98 % of control | T/C (endpoint: mean survival time, dose: 18.0 mg/kg/injection, schedule: Q01DX009 (ip), vehicle: DMSO): 100 % of control | T/C (endpoint: mean survival time, dose: 25.0 mg/kg/injection, schedule: Q01DX009 (ip), vehicle: DMSO): 88 % of control | T/C (endpoint: mean survival time, dose: 50.0 mg/kg/injection, schedule: Q01DX001 (ip), vehicle: DMSO): 91 % of control

CCCCCCCN(CCCCCCC)C(=O)N(CC)CC
T/C [8]: 93 % of control | T/C [9]: 93 % of control | T/C [10]: 97 % of control

Cc1ccc(C(C)C)cc1NC(=S)Nc1ccccc1
T/C [11]: 105 % of control | T/C [12]: 111 % of control | T/C [13]: 97 % of control

COc1ccc(OC)c(NC(=S)N/N=C/c2cccc3ccccc23)c1
T/C [7]: 100 % of control | T/C [14]: 95 % of control | T/C [15]: 100 % of control

COC(=O)/C=C(\C)Oc1cc(Cl)c(Cl)cc1Cl
T/C [7]: 94 % of control | T/C [14]: 97 % of control | T/C [15]: 97 % of control

Cc1ccc(NC(=O)OCC(F)(F)C(F)(F)C(F)(F)F)c(NC(=O)OCC(F)(F)C(F)(F)C(F)(F)F)c1
T/C [8]: 98 % of control | T/C [9]: 98 % of control | T/C [10]: 112 % of control

Cc1cccc2c1NC(c1ccccc1)C(C)S2(=O)=O (stereo unspecified)
T/C (endpoint: mean survival time, dose: 50.0 mg/kg/injection, schedule: Q01DX001 (ip), vehicle: Klucel (hydroxypropylcellulose) (HPC)): 106 % of control | T/C [1]: 96 % of control | T/C [2]: 102 % of control | T/C [3]: 96 % of control

CCCCCCCCCCCCCCCCCCNC(=O)N(c1ccccc1)C1CCCCC1
T/C [11]: 101 % of control | T/C [12]: 93 % of control | T/C [13]: 87 % of control
